Results from patent US10973820B2, “Compounds for treatment of diseases related to DUX4 expression” (Facio Intellectual Property B.V., priority 2017, dated 2021).
Read-outs that look alike come from different tables or passages of the source.

Key:
[1] = target: CK1 δ (Homo sapiens, UniProt P48730); test: inhibition of CK1 δ by CK1 inhibitors; format: biochemical
From the text: (§1) Suitable assays can use a peptide substrate and a readout method, for example using the Kinase-Glo assay (Promega, part # V672A).

[2] = target: p38 (Homo sapiens, UniProt Q16539); test: inhibition of p38 by CK1 inhibitors; format: biochemical; conditions: p38α
[3] = target: CK1 α (Homo sapiens, UniProt P48729); test: inhibition of CK1 α by CK1 inhibitors; format: biochemical
From the text: IC50 values for CK1 can be determined using any method known in the art, for example as described in WO2011051858, WO2015119579, EP2949651, or US2005/0131012. Suitable assays can use a peptide substrate and a readout method, for example using the Kinase-Glo assay (Promega, part # V672A).

[4] = system: DUX4; test: DUX4 repression, high-content immunocytochemistry assay in primary FSHD myotubes; format: cell-based, human; conditions: for EC50: Homo sapiens, Myotube, read-out: EC50 DUX4
From the text: A quantitative assay readout was developed based on script-based image analysis. […] To analyse the images, an automated script was developed, enabling the detection of nuclei, myotube borders and DUX4 signals, with the script also detecting artefacts to reduce false positive signals. The script enabled multiple validated readouts including the number of DUX4 positive nuclei and nuclei clusters, the fusion index, myotube area, myotube width and myotube skeleton length (see FIG. 2). Additionally, the total nuclei count was included as a measure of cell loss or compound toxicity.
A compound library containing approximately 5000 annotated compounds was screened in the high-content assay. For this purpose, primary myoblasts were seeded in 384 well plates after which the growth medium was replaced with differentiation medium. After 3 days of differentiation, cells were treated with library compounds (in duplicate on different screening plates) for 15 h, after which they were fixed and stained with antibodies against DUX4, antibodies against myosin heavy chain (MHC), and with DAPI (4′,6-diamidino-2-phenylindole). Script-based analysis provided readouts for DUX4 expression (count of DUX4-positive nuclei or DUX4 intensity) and for potential toxicity (fusion index and nuclei count).
Compounds were incubated with primary FSHD cells for 15 hours, as indicated by the arrow in FIG. 4A.
Compounds are administered either 15 h before fixation, resembling the original screening protocol, or 72 h before fixation (grey arrow). In the latter case, compounds are present during the whole differentiation process.

[5] = target: CK1 ε (Homo sapiens, UniProt P49674); test: inhibition of CK1 ε by CK1 inhibitors; format: biochemical
From the text: as §1

[6] = system: pancreatic tumor cell; conditions: in vitro and in vivo; cited from earlier work
[7] = system: DUX4; conditions: immortalised differentiated myotube cultures; cited from earlier work
[8] = primary FSHD cells, compound incubation 15 hours

Sequence of p38 (Q16539 whole entry): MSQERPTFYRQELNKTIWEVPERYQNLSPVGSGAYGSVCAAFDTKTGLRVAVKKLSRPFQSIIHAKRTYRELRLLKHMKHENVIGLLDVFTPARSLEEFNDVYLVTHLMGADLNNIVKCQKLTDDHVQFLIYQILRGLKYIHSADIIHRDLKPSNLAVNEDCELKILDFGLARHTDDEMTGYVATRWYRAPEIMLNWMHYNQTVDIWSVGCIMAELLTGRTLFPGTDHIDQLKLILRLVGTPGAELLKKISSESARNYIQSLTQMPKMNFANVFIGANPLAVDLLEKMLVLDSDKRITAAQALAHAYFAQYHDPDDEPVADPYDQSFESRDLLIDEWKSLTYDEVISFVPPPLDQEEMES
Sequence of CK1 ε (P49674 whole entry): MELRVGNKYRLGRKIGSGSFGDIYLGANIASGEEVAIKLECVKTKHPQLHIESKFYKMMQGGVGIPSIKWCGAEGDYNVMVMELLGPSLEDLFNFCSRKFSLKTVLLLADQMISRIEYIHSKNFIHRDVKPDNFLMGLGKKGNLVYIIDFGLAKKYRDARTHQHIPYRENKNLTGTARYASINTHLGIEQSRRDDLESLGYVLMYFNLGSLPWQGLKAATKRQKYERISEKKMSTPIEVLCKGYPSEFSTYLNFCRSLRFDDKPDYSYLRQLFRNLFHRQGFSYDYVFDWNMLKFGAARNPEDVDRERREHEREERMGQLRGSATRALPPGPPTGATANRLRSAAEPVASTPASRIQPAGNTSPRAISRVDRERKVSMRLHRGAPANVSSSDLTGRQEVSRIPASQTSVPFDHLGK
Sequence of CK1 α (P48729 whole entry): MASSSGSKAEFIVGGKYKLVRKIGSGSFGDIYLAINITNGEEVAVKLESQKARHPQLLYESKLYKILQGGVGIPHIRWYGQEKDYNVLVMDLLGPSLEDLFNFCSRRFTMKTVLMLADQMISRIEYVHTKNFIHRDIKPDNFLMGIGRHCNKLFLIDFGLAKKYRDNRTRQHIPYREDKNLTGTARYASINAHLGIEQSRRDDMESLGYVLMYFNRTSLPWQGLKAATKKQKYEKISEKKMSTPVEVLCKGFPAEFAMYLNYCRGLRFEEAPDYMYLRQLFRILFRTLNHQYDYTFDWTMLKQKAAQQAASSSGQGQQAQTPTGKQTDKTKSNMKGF
Sequence of CK1 δ (P48730 whole entry): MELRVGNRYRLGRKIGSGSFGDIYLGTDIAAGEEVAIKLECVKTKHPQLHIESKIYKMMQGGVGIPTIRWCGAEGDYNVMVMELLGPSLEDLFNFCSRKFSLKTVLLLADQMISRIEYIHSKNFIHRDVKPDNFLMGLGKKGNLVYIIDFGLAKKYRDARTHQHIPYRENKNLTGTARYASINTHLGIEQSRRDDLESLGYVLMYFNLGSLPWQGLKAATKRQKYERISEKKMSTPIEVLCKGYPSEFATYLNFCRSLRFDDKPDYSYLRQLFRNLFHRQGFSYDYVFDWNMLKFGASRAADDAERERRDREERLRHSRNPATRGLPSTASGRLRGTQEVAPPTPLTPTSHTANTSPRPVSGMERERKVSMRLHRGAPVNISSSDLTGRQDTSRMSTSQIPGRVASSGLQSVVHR

Compound | IC50 [1] [nM] | IC50 [2] [nM] | IC50 [3] [nM] | EC50 [4, 8] [nM] | IC50 [5] [nM] | EC50 ([4]; 15 h) [nM] | pancreatic tumor cell growth [6] | effect on DUX4 expression ([4]; irrespective of treatment time (15 h or 72 h)) | expression of DUX4 [7]
CC1(C)CN(c2ccc3nc(-c4ccc(F)cc4)c(-c4ccncc4)n3n2)CCN1 [Compound A] | 19 | 13 | 30 | 50 | 12 |  |  |  | 
Cn1cc(-c2ccnc3c2C(=O)OC3)c(-c2ccc(F)cc2)n1 [Compound D] | 33.1 | 569 | 644 | 1410 | 51.6 |  |  |  | 
CN1Cc2nccc(-c3cn(C)nc3-c3ccc(F)cc3)c2C1=O [Compound E] |  | 1110 | 592 |  |  | 1890 |  |  | 
Cn1cc(-c2ccnc3c2C(=O)N(C2CCOCC2)C3)c(-c2ccc(F)cc2)n1 [Compound F] | 18 | 677 | 561 | 2590 | 72 |  |  |  | 
Fc1ccc(-c2nc3ccc(N4CCNCC4)nn3c2-c2ccncc2)cc1 [Compound H] | 22 | 25 | 33 | 10 | 16 |  |  |  | 
COc1cc(OC)c(C=C2C(O)=Nc3ccccc32)c(OC)c1 [IC261] |  |  |  |  |  |  | reduces pancreatic tumor cell growth |  | 
COc1cc(OC)c2c(=O)[nH]c(-c3cc(C)c(OCCO)c(C)c3)nc2c1 [RVX-208, reference compound] |  |  |  |  |  |  |  | did not show any effect on DUX4 expression | can inhibit the expression of DUX4
Fc1cccc(-n2cnc3c(NCc4nc5ccc(F)c(F)c5[nH]4)nc(N4CCOCC4)nc32)c1 [SR-3029, reference compound] |  | > 10000 | > 10000 |  |  | 50 |  |  | 

Now from value to molecule, other results behind:

IC50 [1] [nM] | IC50 [2] [nM] | IC50 [3] [nM] | EC50 [4, 8] [nM] | IC50 [5] [nM] | Compound | EC50 ([4]; 15 h) [nM] | pancreatic tumor cell growth [6] | effect on DUX4 expression ([4]; irrespective of treatment time (15 h or 72 h)) | expression of DUX4 [7]
 | 32 | 320 | 470 |  | Nc1nccc(-c2c(-c3ccc(F)cc3)ncn2C2CCCCC2)n1 [PF-670462, reference compound] |  |  |  | 
20 | 74 | 123 | 820 | 27 | Nc1nccc(-c2c(-c3ccc(F)cc3)ncn2C2CCN(Cc3ccon3)CC2)n1 [PF-5006739, reference compound] |  |  |  | 
